Our source for the EC50 values is US12583839B2, “PD-L1 antagonist compound” (ADLAI NORTYE BIOPHARMA CO., LTD., priority 2019, dated 2026).

The assay addresses T1, PD-1/PD-L1 (Homo sapiens, UniProt Q9NZQ7).
T1 construct: 60535 (PD-1/NFAT-Reporter-Jurkat); host or cells: CHO cells expressing PD-L1; Jurkat cells expressing PD-1
The assay is described as follows: Detection of biological activity of PD-1/PD-L1 signaling inhibition at the cellular level (NFAT luciferase reporter, PD-1/NFAT-Reporter-Jurkat cells co-cultured with TCR activator/PD-L1-CHO cells). To be noted: PD-1/NFAT-Reporter-Jurkat + TCR activator/PD-L1-CHO co-culture, 6 hours; Atezolizumab as positive control. Type of assay: cell-based. The source says:
Detection of Biological Activity of PD-1/PD-L1 Signaling Inhibition at the Cellular Level
This detection method is used for evaluating the biological activity of the compounds described in the present invention at the cellular level.
This detection method uses the luciferase reporter gene method to detect the biological activity of the compound on the inhibition of PD-1/PD-L1 signal at the cellular level. PD-1/NFAT—Reporter—Jurkat cells stably express human PD-1 and express the luciferase reporter gene regulated by NFAT elements; TCR activator/PD-L1-CHO cells stably express human PD-L1 and TCR activator elements. When the two cell lines were co-cultured, the binding of PD-1/PD-L1 inhibited the TCR signaling pathway, thereby inhibiting the expression of the downstream NFAT-controlled luciferase reporter gene. When PD-1/PD-L1 antibody or inhibitor is added, this inhibitory effect is reversed and luciferase is expressed, so that the effect of PD-1/PD-L1 inhibitor on luciferase activity can be detected.
PD-1/NFAT—Reporter—Jurkat cell (Cat: 60535) and TCR activator/PD-L1-CHO cell (Cat: 60536) were purchased from BPS Bioscience. Anti-human PD-L1 antibody (Atezolizumab, Cat: A2004) was purchased from Selleck; luciferase reporter gene expression detection kit (ONE-Glo™ Luciferase Assay System, Cat: E6120) was purchased from Promega; multifunction plate reader (SpectraMax i3x) was purchased from Molecular Devices.
The PD-1/NFAT—Reporter—Jurkat cells and TCR activator/PD-L1-CHO cells were cultured according to the routine cell culture protocol.
TCR activator/PD-L1-CHO cells were harvested and seeded into a 96-well culture plate at 35,000 cells/well in a medium volume of 100 μl and incubated overnight at 37° C. The next day, the medium was discarded, compound was added and incubated for 30 minutes, while a solvent control (dimethyl sulfoxide, DMSO, final concentration of 0.1%) and PD-L1 antibody (Atezolizumab, final concentration of about 10 nM) as positive controls were set. PD-1/NFAT-reporter-Jurkat cells were then added. After culturing for 6 hours, the luciferase activity was detected according to the instructions of the luciferase detection reagent.
Using PD-L1 antibody as a positive control, calculate the inhibition rate of PD-1/PD-L1 binding of the test compound (%)=(chemiluminescence value of compound treated wells/average value of chemiluminescence value of solvent control wells−1)/(average value of chemiluminescence value of PD-L1 antibody well/average value of chemiluminescence value of solvent control well−1)×100%.
According to the above detection method, the compounds of the present invention were evaluated for their biological activity at the cellular level, and the activity results are shown in the following table.
In general terms: A reporter such as luciferase makes a cellular process visible.

T1 sequence (Q9NZQ7 19-290): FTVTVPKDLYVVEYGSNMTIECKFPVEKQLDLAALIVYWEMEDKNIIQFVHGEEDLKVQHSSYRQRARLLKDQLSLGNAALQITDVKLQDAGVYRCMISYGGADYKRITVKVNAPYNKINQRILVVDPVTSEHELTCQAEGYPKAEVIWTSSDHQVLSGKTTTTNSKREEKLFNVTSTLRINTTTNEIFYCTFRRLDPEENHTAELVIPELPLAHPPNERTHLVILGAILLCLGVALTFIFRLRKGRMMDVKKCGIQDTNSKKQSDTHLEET

As usually defined, the EC50 is the midpoint of the concentration-response curve. Consider `COc1cc(-c2cccc(-c3cccc4c3cnn4Cc3cc(OC)c(CN4CC[C@@H](C(=O)O)C4)cc3Cl)c2Cl)ccc1CN1CC[C@@H](O)C1` [Compound 87], for which the EC50 was 692 nM.
Under `COc1cc(-c2cccc(-c3cccc4c3cnn4Cc3cc(OC)c(CN4CC[C@@H](C(=O)O)C4)cc3Cl)c2Cl)ccc1CNCCO` [Compound 88] stands 80 nM; under `COc1cc(Cn2ncc3c(-c4cccc(-c5ccc(CNC[C@@H]6CCC(=O)N6)cc5)c4Cl)cccc32)c(N)cc1CN[C@@H](CO)C(=O)O` [Compound 89], 1110 nM; under `COc1cc(-c2cccc(-c3cccc4c3cnn4Cc3cc(OC)c(CN4CC[C@@H](C(=O)O)C4)cc3Cl)c2C)ccc1CNC[C@@H]1CCC(=O)N1` [Compound 90], 150 nM.
With `COc1cc(Cn2ncc3c(-c4cccc(-c5ccc(CNC[C@@H]6CCC(=O)N6)c(OC)n5)c4Cl)cccc32)c(Cl)cc1CN(C)CC1CCC(C(=O)O)CC1` (stereo partly drawn) [Compound 91], the EC50 was found to be 92 nM.
Consider `COc1cc(-c2cccc(-c3cccc4c3cnn4Cc3cc(OC)c(CN(C)C4CCC(C(=O)O)CC4)cc3[N+](=O)[O-])c2Cl)ccc1CNC[C@@H]1CCC(=O)N1` (stereo partly drawn) [Compound 92], for which the EC50 came to 15 nM.
In the case of `COc1cc(-c2cccc(-c3cccc4c3cnn4Cc3cc(OC)c(CN(C)[C@H]4C[C@H](C(=O)O)C4)cc3Cl)c2Cl)ccc1CNC[C@@H]1CCC(=O)N1` [Compound 93], the EC50 was found to be 21 nM.
Under `COc1cc(-c2cccc(-c3cccc4c3cnn4Cc3cc(OC)c(CN4CCC(CC(=O)O)CC4)cc3Cl)c2Cl)ccc1CNC[C@@H]1CCC(=O)N1` [Compound 94] stands 142 nM.
Regarding `COc1cc(-c2cccc(-c3cccc4c3cnn4Cc3cc(OC)c(CN(C)[C@H]4CC[C@H](CC(=O)O)CC4)cc3Cl)c2Cl)ccc1CNC[C@@H]1CCC(=O)N1` [Compound 95], the EC50 was found to be 15 nM.
Under `COc1cc(-c2cccc(-c3cccc4c3cnn4Cc3cc(OC)c(CN(C)CC4CCC(C(=O)O)CC4)cc3[N+](=O)[O-])c2Cl)ccc1CNC[C@@H]1CCC(=O)N1` (stereo partly drawn) [Compound 96] stands 45 nM; under `CCOc1cc(-c2cccc(-c3cccc4c3cnn4Cc3cc(OC)c(CN(C)CC4CCC(C(=O)O)CC4)cc3Cl)c2Cl)ccc1CNC[C@@H]1CCC(=O)N1` (stereo partly drawn) [Compound 97], 273 nM.
Under `COc1cc(Cn2ncc3c(-c4cccc(-c5ccc(CNC[C@@H]6CCC(=O)N6)c(OC(C)C)c5)c4Cl)cccc32)c(Cl)cc1CN(C)CC1CCC(C(=O)O)CC1` (stereo partly drawn) [Compound 98] stands 520 nM.
Under `COc1cc(-c2cccc(-c3cccc4c3cnn4Cc3cc(OC)c(CN4CC[C@H](CC(=O)O)C4)cc3Cl)c2Cl)ccc1CNC[C@@H]1CCC(=O)N1` [Compound 99] stands 62 nM; under `COc1cc(Cn2ncc3c(-c4cccc(-c5ccc(CN(C)C[C@@H]6CCC(=O)N6)c(OC)c5)c4Cl)cccc32)c(Cl)cc1CN(C)CC1CCC(C(=O)O)CC1` (stereo partly drawn) [Compound 100], 745 nM; under `COc1cc(Cn2ncc3c(-c4cccc(-c5cc(F)c(CNC[C@@H]6CCC(=O)N6)c(OC)c5)c4Cl)cccc32)c(Cl)cc1CN(C)CC1CCC(C(=O)O)CC1` (stereo partly drawn) [Compound 101], 87 nM.
Turning to `COc1cc(Cn2ncc3c(-c4cccc(-c5cc(OC)c(CNC[C@@H]6CCC(=O)N6)c(OC)c5)c4Cl)cccc32)c(Cl)cc1CN(C)CC1CCC(C(=O)O)CC1` (stereo partly drawn) [Compound 102], the EC50 amounted to 735 nM.
Under `COc1cc(-c2cccc(-c3cccc4c3cnn4Cc3cc(OC)c(CN(C)C4CCC(C(=O)O)CC4)cc3S(C)(=O)=O)c2Cl)ccc1CNC[C@@H]1CCC(=O)N1` (stereo partly drawn) [Compound 103] stands 208 nM.
As to `COc1cc(-c2cccc(-c3cccc4c3cnn4Cc3cc(OC)c(CN(C)[C@H]4C[C@@H](C(=O)O)C4)cc3Cl)c2Cl)ccc1CNC[C@@H]1CCC(=O)N1` [Compound 104], the EC50 stood at 46 nM.
For the compound `COc1cc(-c2cccc(-c3cccc4c3cnn4Cc3cc(OC)c(CN(C)C45CCC(C(=O)O)(CC4)CC5)cc3Cl)c2Cl)ccc1CNC[C@@H]1CCC(=O)N1` [Compound 105], the EC50 was determined as 20 nM.
Under `COc1cc(-c2cccc(-c3cccc4c3cnn4Cc3cc(OC)c(CN(C)C4CC5(CC(C(=O)O)C5)C4)cc3Cl)c2Cl)ccc1CNC[C@@H]1CCC(=O)N1` (stereo partly drawn) [Compound 106] stands 43 nM; under `COc1cc(-c2cccc(-c3cccc4c3cnn4Cc3cc(OC)c(CN(C)C4CCC(C(=O)O)CC4)cc3C#N)c2Cl)ccc1CNC[C@@H]1CCC(=O)N1` (stereo partly drawn) [Compound 107], 20 nM.
Under `COc1cc(-c2cccc(-c3cccc4c3cnn4Cc3cc(OC)c(CN(C)C4CCC(CC(=O)O)CC4)cc3C#N)c2Cl)ccc1CNC[C@@H]1CCC(=O)N1` (stereo partly drawn) [Compound 108] stands 63 nM.
With `COc1cc(-c2cccc(-c3cccc4c3cnn4Cc3cc(OC)c(CN(C)[C@H]4CC[C@@H](CC(=O)O)CC4)cc3Cl)c2Cl)ccc1CNC[C@@H]1CCC(=O)N1` [Compound 109], the EC50 was 44 nM.
Under `COc1cc(-c2cccc(-c3cccc4c3cnn4Cc3cc(OC(C)C)c(CN(C)CC4CCC(C(=O)O)CC4)cc3Cl)c2Cl)ccc1CNC[C@@H]1CCC(=O)N1` (stereo partly drawn) [Compound 110] stands 495 nM; under `COc1cc(Cn2ncc3c(-c4cccc(-c5ccc(CNC[C@@H]6CCC(=O)N6)cc5)c4Cl)cccc32)c(F)cc1CN(C)CC1CCC(C(=O)O)CC1` (stereo partly drawn) [Compound 111], 1040 nM.
Consider `COc1cc(-c2cccc(-c3cccc4c3cnn4Cc3cc(OC)c(CN(C)CC4CCC(C(=O)O)CC4)cc3C)c2Cl)ccc1CNC[C@@H]1CCC(=O)N1` (stereo partly drawn) [Compound 112], for which the EC50 was found to be 185 nM.
Under `COc1cc(Cn2ncc3c(-c4cccc(-c5cc(F)c(CNC[C@@H]6CCC(=O)N6)c(OC)c5)c4Cl)cccc32)c(Cl)cc1CN(C)[C@H]1C[C@H](C(=O)O)C1` [Compound 113] stands 15 nM.
Under `COc1cc(Cn2ncc3c(-c4cccc(-c5cc(F)c(CNC[C@@H]6CCC(=O)N6)c(OC)c5)c4Cl)cccc32)c(Cl)cc1CN(C)[C@H]1CC[C@H](C(=O)O)CC1` [Compound 114] stands 14 nM; under `COc1cc(Cn2ncc3c(-c4cccc(-c5cc(F)c(CNC[C@@H]6CCC(=O)N6)c(OC)c5)c4Cl)cccc32)c(Cl)cc1CN(C)C1CCC(CC(=O)O)CC1` (stereo partly drawn) [Compound 115], 16 nM.
Under `COc1cc(Cn2ncc3c(-c4cccc(-c5cc(F)c(CNC[C@@H]6CCC(=O)N6)c(OC)c5)c4Cl)cccc32)c(Cl)cc1CN(C)C12CCC(C(=O)O)(CC1)CC2` [Compound 116] stands 16 nM; under `COc1cc(Cn2ncc3c(-c4cccc(-c5ccc(CNC[C@@H]6CCC(=O)N6)cc5)c4Cl)cc(Cl)cc32)c(Cl)cc1CN[C@@H](CO)C(=O)O` [Compound 117], 537 nM; under `COc1cc(-c2cccc(-c3cccc4c3cnn4Cc3cc(OC)c(CN(C)CC4CCC(CC(=O)O)CC4)cc3Cl)c2Cl)ccc1CNC[C@@H]1CCC(=O)N1` (stereo partly drawn) [Compound 118], 53 nM.
For the compound `COc1cc(-c2cccc(-c3cccc4c3cnn4Cc3cc(OC)c(CN(C)C4CC(CC(=O)O)C4)cc3Cl)c2Cl)ccc1CNC[C@@H]1CCC(=O)N1` (stereo partly drawn) [Compound 119], the EC50 came out at 152 nM.
Under `COc1cc(-c2cccc(-c3cccc4c3cnn4Cc3cc(OC)c(CN(C)C4CCC(/C=C/C(=O)O)CC4)cc3Cl)c2Cl)ccc1CNC[C@@H]1CCC(=O)N1` (stereo partly drawn) [Compound 120] stands 32 nM; under `COc1cc(-c2cccc(-c3cccc4c3cnn4Cc3cc(OC)c(CN(C)C4CCC(CCC(=O)O)CC4)cc3Cl)c2Cl)ccc1CNC[C@@H]1CCC(=O)N1` (stereo partly drawn) [Compound 121], 34 nM; under `COc1cc(-c2cccc(-c3cccc4c3cnn4Cc3cc(OC)c(CN(C4CCC(C(=O)O)CC4)C4CC4)cc3Cl)c2Cl)ccc1CNC[C@@H]1CCC(=O)N1` (stereo partly drawn) [Compound 122], 320 nM.
Under `CCOc1cc(Cn2ncc3c(-c4cccc(-c5ccc(CNC[C@@H]6CCC(=O)N6)c(OC)c5)c4Cl)cccc32)c(Cl)cc1CN(C)C[C@H]1CC[C@H](C(=O)O)CC1` [Compound 124] stands 91 nM; under `COc1cc(-c2cccc(-c3cccc4c3cnn4Cc3cc(OC)c(CN(Cc4ccccc4)[C@H]4CC[C@H](C(=O)O)CC4)cc3Cl)c2Cl)ccc1CNC[C@@H]1CCC(=O)N1` [Compound 125], 680 nM.
Under `COc1cc(-c2cccc(-c3cccc4c3cnn4Cc3cc(OC)c(CN(CC4CC4)[C@H]4CC[C@H](C(=O)O)CC4)cc3Cl)c2Cl)ccc1CNC[C@@H]1CCC(=O)N1` [Compound 126] stands 103 nM.
